Molecules are shown by their SMILES. Several values for one entry are separate records, joined by “and”; a condition that tells them apart may be missing. Identical values can stand only once.

Experiment [1] addresses Fibroblast growth factor receptor 3 (Homo sapiens) (UniProt P22607). Particulars: Compound concentration 20.0 uM, Protein concentration 2.0 uM, Result type QC Liability.
Description: Thermal Shift Assay. Domain: start/stop: P449-E759
For another experiment, the target named is T1, Peregrin (Homo sapiens) (UniProt P55201).
T1 sequence (whole entry): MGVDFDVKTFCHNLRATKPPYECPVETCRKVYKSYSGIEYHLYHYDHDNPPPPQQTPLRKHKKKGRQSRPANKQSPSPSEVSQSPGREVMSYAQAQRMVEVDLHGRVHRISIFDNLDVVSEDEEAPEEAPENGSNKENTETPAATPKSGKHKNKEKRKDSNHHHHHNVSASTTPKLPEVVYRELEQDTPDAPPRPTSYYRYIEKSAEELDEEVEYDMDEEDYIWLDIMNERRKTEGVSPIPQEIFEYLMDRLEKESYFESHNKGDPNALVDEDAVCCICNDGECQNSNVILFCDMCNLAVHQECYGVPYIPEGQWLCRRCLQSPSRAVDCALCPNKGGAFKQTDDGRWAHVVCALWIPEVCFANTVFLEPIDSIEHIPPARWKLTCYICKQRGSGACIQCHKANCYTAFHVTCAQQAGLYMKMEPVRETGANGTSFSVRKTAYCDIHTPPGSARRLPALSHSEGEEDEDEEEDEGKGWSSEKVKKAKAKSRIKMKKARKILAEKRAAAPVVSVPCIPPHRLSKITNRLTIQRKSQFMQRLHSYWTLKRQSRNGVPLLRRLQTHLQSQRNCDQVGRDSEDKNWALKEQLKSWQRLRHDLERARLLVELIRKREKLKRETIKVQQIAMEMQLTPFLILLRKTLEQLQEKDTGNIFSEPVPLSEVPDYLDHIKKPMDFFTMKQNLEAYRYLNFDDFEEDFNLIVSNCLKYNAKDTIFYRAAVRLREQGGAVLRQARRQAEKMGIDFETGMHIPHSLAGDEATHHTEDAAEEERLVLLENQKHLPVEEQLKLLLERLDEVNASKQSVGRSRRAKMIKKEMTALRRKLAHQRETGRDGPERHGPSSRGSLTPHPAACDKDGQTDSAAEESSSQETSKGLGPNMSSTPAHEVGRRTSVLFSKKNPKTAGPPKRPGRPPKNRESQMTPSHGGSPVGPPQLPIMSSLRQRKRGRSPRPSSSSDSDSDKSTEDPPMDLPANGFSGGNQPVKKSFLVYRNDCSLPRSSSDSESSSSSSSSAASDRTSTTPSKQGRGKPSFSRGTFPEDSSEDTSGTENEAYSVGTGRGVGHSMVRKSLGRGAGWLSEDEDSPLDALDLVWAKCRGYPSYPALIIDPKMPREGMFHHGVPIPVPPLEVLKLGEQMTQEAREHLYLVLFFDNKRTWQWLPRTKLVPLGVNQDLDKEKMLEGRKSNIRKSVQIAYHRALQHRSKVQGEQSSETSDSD
Conditions: Compound concentration 20.0 uM, Protein concentration 2.0 uM, Result type QC Liability.

Chain of Fibroblast growth factor receptor 3 (Homo sapiens) (P22607 23-806 limits assumed): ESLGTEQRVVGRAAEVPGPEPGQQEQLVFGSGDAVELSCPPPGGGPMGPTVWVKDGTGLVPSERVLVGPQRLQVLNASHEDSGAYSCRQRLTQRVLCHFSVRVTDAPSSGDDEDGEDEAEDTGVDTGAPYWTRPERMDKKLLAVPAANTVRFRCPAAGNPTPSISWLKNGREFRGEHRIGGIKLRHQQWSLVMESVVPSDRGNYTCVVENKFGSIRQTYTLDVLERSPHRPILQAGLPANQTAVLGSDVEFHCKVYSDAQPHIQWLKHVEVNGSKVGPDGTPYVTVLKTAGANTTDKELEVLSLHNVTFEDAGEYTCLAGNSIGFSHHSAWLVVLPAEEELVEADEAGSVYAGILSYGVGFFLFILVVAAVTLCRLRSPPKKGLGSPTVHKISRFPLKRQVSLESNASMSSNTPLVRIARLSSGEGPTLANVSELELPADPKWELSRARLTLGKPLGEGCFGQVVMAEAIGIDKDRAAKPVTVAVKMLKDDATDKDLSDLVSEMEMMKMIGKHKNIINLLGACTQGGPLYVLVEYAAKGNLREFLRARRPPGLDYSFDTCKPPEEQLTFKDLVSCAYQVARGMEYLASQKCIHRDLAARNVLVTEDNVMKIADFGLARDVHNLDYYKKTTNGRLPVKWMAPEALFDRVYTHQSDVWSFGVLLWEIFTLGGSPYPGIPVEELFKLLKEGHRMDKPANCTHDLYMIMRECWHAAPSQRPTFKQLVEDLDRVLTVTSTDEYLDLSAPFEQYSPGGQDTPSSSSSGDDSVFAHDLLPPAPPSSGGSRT

Regarding `NCC1CCC(CNc2nc(NCc3ccccc3OC(F)(F)F)ncc2[N+](=O)[O-])CC1` (stereo not given), the ΔTm in experiment [1] was determined as 0.5 °C; at Peregrin (Homo sapiens) it was 0.06 °C.

As to `Cc1cc2c(-c3ccco3)cnc(N[C@H]3CCN(C)C[C@@H]3C(=O)NC3CCCCC3)c2[nH]c1=O`, the results for the ΔTm (in experiment [1]; at Peregrin (Homo sapiens)) were 1 °C and -1.73 °C, respectively.

With `COc1cc(-c2cncc(-c3ccc(N4CCN(C(C)C)CC4)cc3)c2C)cc(F)c1C(N)=O`, the values for the ΔTm (in experiment [1]; on Peregrin (Homo sapiens)) were 0.64 °C and -1.51 °C, respectively.

As for `Cn1cnc(Cn2ccc3ccc(CNCc4[nH]c5ccccc5c4[C@H]4NC(=O)c5ccc(O)cc54)cc32)c1`, the ΔTm in experiment [1] is 0.57 °C; on Peregrin (Homo sapiens), -2.61 °C.

For the molecule `CC(=O)c1c(C)c2cnc(Nc3ccc(N4CCN(CCOCCOCCOCCNC(=O)COc5cccc6c5C(=O)N(C5CCC(=O)NC5=O)C6=O)CC4)cn3)nc2n(C2CCCC2)c1=O` (stereo not given), the thermal shift (ΔTm) in experiment [1] is 0.48 °C; at Peregrin (Homo sapiens), -1.99 °C.

Consider `CNC(=O)c1cc(C(=O)N[C@H]2[C@@H]3COC[C@@H]32)cc2c1O[C@@H](CF)[C@@H]2c1ccccc1`, for which the ΔTm was 0.48 °C in experiment [1] and -1.16 °C at Peregrin (Homo sapiens).

Consider `O=C(Cc1ccccc1[N+](=O)[O-])Nc1ccc(-c2ccc(C(O)(C(F)(F)F)C(F)(F)F)cc2F)cc1`, for which the ΔTm was determined as 1.47 °C in experiment [1] and 1.8 °C at Peregrin (Homo sapiens).

As to `CC1(C)C[C@@H]1C(=O)N/C(=C\CCCCSC[C@H](N)C(=O)O)C(=O)O`, the results for the ΔTm (in experiment [1]; on Peregrin (Homo sapiens)) were 0.5 °C and -2.3 °C, respectively.

As to `O=C(O)C[C@H]1CC[C@H](c2ccc(NC(=O)c3nnc(Nc4ccc(F)c(F)c4)o3)cc2)CC1`, the ΔTm is 0.79 °C in experiment [1] and -2.89 °C on Peregrin (Homo sapiens).

Take `COc1ccc(Br)cc1S(=O)(=O)NC(=O)/C=C/c1cc(Cl)ccc1Cc1ccc2ccccc2c1`: the ΔTm in experiment [1] is 0.7 °C; at Peregrin (Homo sapiens) it was -10.6 °C.

On to `Cc1cnc(-c2cnc(NCCNc3ccc(C#N)cn3)nc2-c2ccc(Cl)cc2Cl)[nH]1`, for which the ΔTm is 1.41 °C in experiment [1] and -2.19 °C on Peregrin (Homo sapiens).

As to `Cc1cc(Cn2c(N3CC4(CNC4)C3)nc3c(N4CCN(C)CC4)cc(Cl)cc32)cc(C)c1F`, the ΔTm is 0.86 °C in experiment [1] and -3.49 °C at Peregrin (Homo sapiens).

Consider `CCCNc1ccc2ncc(-c3ccncc3)n2n1`, for which the ΔTm came out at 3.37 °C in experiment [1] and 0.26 °C on Peregrin (Homo sapiens).

Regarding `Cc1ccc(NC(=O)c2ccc(CN3CC[C@H](N(C)C)C3)c(C(F)(F)F)c2)cc1Nc1nccc(-c2cncnc2)n1`, the figures for the ΔTm (in experiment [1]; at Peregrin (Homo sapiens)) were 0.68 °C and -3.14 °C, respectively.

Turning to `C[C@H](CCC(=O)O)[C@H]1CC[C@H]2[C@@H]3CC[C@@H]4C[C@H](O)CC[C@]4(C)[C@H]3CC[C@]12C`, the ΔTm in experiment [1] is -0.33 °C; at Peregrin (Homo sapiens), -3.84 °C.

Regarding `Cc1ncc(C(=O)Nc2cc(C(C)(C)C)on2)cc1-n1cc(-c2cnn(C)c2C)nn1`, the ΔTm was determined as 2.95 °C in experiment [1] and 0.08 °C on Peregrin (Homo sapiens).

With `COc1ccccc1Nc1nc(-c2nn(Cc3c(F)cc(OCCCO)cc3F)c3ccccc23)ncc1OC`, the ΔTm in experiment [1] was 0.41 °C; on Peregrin (Homo sapiens), -1.09 °C.

As for `COc1cc(C(=O)NCCOCCOCCOCC(=O)N[C@H](C(=O)N2C[C@@H](O)C[C@H]2C(=O)NCc2ccc(-c3scnc3C)cc2)C(C)(C)C)ccc1Nc1ncc(C(F)(F)F)c(Oc2cccc3c2C(=O)CC3)n1`, the figures for the shift in melting temperature (ΔTm) (in experiment [1]; on Peregrin (Homo sapiens)) were 1.69 °C and 1.72 °C, respectively.

Consider `C[C@]12CC[C@@H]3c4ccc(O)cc4CC[C@H]3[C@@H]1C[C@H]1OC(=O)C[C@]12O`, for which the thermal shift (ΔTm) in experiment [1] is 0.36 °C; at Peregrin (Homo sapiens) it was -1.41 °C.

`Nc1ncc2c(n1)-c1c([nH]c3ccc(C4CC4)cc13)CCCC2`: the ΔTm was 0.81 °C in experiment [1] and -1.74 °C on Peregrin (Homo sapiens).

With `CCc1cnn2c(NCc3ccc[n+]([O-])c3)cc(N3CCCCC3CCO)nc12` (stereo not given), the ΔTm in experiment [1] is 1.49 °C; at Peregrin (Homo sapiens) it was -1.7 °C.

`C#Cc1cnc2[nH]cc(-c3cccc4c3CCN4C(=O)[C@@H]3CCCN3C#N)c2c1`: the thermal shift (ΔTm) in experiment [1] is 3.57 °C; at Peregrin (Homo sapiens), -12.9 °C.

On to `COc1cc2ncnc(N[C@H](C)c3ccccc3)c2cc1OC1CCN(S(C)(=O)=O)CC1`, for which the ΔTm in experiment [1] was 0.38 °C; at Peregrin (Homo sapiens), -0.11 °C.

As for `CCOC(=O)/N=C(\N)c1ccc(OCc2cccc(COc3ccc(C(C)(C)c4ccc(OC(=O)OCC)cc4)cc3)c2)cc1`, the ΔTm is 0.54 °C in experiment [1] and -8.55 °C at Peregrin (Homo sapiens).

Take `CO[C@@H](C)CN1CC[C@]2(C)c3cc(O)ccc3C[C@H]1C2(C)C`: the figures for the ΔTm (in experiment [1]; on Peregrin (Homo sapiens)) were 1.13 °C and -3.01 °C, respectively.

As to `Cn1cncc1-c1cn(-c2cccc(C(=O)Nc3cccc(C(F)(F)F)c3)c2)nn1`, the ΔTm is -9.32 °C in experiment [1] and -1.49 °C on Peregrin (Homo sapiens).

For the molecule `C[C@]12CC[C@@H]3c4ccc(C(N)=O)cc4CC[C@H]3[C@@H]1CC=C2c1cncc(F)c1`, the results for the ΔTm (in experiment [1]; at Peregrin (Homo sapiens)) were 0.92 °C and -4.27 °C, respectively.

Consider `Cc1ccc(NS(=O)(=O)c2ccc3c(c2)C2C=CCC2C(c2ccc(C(=O)O)cc2)N3)cc1C` (stereo not given), for which the ΔTm in experiment [1] was 0.11 °C; on Peregrin (Homo sapiens) it was -0.5 °C.

With `C[C@H](NC(=O)c1cc(Cl)ccc1Oc1ccc(F)cc1)c1ccc(C(=O)O)cc1`, the thermal shift (ΔTm) was 0.47 °C in experiment [1] and -3.01 °C on Peregrin (Homo sapiens).

For the molecule `CCc1ncnc(N2CCN(C(C)=O)CC2)c1C#Cc1ccc(N)nc1`, the ΔTm in experiment [1] is 0.7 °C; at Peregrin (Homo sapiens), -1.29 °C.

`CCOc1cc(CC(=O)N[C@@H](CC(C)C)c2ccccc2N2CCCCC2)ccc1C(=O)O`: the ΔTm in experiment [1] was 0.18 °C; at Peregrin (Homo sapiens), -3.67 °C.

`CC(C)(C)c1cc(NC(=O)c2csc(Nc3ccccn3)n2)no1`: the ΔTm in experiment [1] is 0.72 °C; on Peregrin (Homo sapiens) it was -2.33 °C.

Consider `CC(=O)N1CCC(c2ccc(C(=O)NC3=NCCN3)cc2C(F)(F)F)CC1`, for which the ΔTm in experiment [1] is 0.6 °C; on Peregrin (Homo sapiens), -1.55 °C.

Take `CN[C@@H]1CC[C@@H](c2ccc(Cl)c(Cl)c2)c2ccccc21`: the ΔTm is 0.61 °C in experiment [1] and -1.62 °C at Peregrin (Homo sapiens).

As to `Cc1[nH]c2c(N3CCCCC3)c(-c3ccccc3)nn2c(=O)c1-c1ccc(O)cc1`, the ΔTm was 0.67 °C in experiment [1] and -2.87 °C on Peregrin (Homo sapiens).

Consider `O=C(O)c1cc2cc(Cc3cccnc3)ccc2o1`, for which the results for the ΔTm (in experiment [1]; at Peregrin (Homo sapiens)) were 0.96 °C and -2.16 °C, respectively.

As for `Fc1ccc(-c2c3cccc(C(F)(F)F)c3nn2Cc2ccc(F)cc2Cl)cc1`, the values for the ΔTm (in experiment [1]; at Peregrin (Homo sapiens)) were 0.67 °C and -2.25 °C, respectively.

`NC1(c2ccc(-c3nc4c(O)ccnn4c3-c3ccccc3)cc2)CCC1`: the ΔTm worked out at 0.79 °C in experiment [1] and 0.22 °C at Peregrin (Homo sapiens).

For the molecule `C[C@@H](Oc1cc(-n2cnc3ccc(OC4CCN(C)CC4)cc32)sc1C(N)=O)c1ccccc1Cl`, the figures for the ΔTm (in experiment [1]; at Peregrin (Homo sapiens)) were 3.37 °C and 0.36 °C, respectively.

Take `O=C1CCCN1CCNc1nc(Nc2ccc(Cl)c(Cl)c2)ncc1C(F)(F)F`: the values for the ΔTm (in experiment [1]; at Peregrin (Homo sapiens)) were 4.63 °C and -1.78 °C, respectively.

In the case of `Cc1c(NC(=O)COc2ccc(Cl)cc2C(=O)c2cc(F)cc(C(F)(F)F)c2)ccc(C(=O)O)c1F`, the ΔTm was 0.45 °C and 3.99 °C in experiment [1]; -2.51 °C and -1.17 °C on Peregrin (Homo sapiens).

`COc1ccc(CC[C@@H](OC(=O)[C@H]2CCCCN2C(=O)[C@@H](c2cc(OC)c(OC)c(OC)c2)C2CCCCC2)c2cccc(OCCN3CCOCC3)c2)cc1OC`: the ΔTm in experiment [1] is -3.96 °C; on Peregrin (Homo sapiens), -4.81 °C.

Take `CN1CCc2cc(Nc3ncc(C(F)(F)F)c(NCc4cc[nH]n4)n3)ccc2C1`: the ΔTm is 8.22 °C in experiment [1] and -1.01 °C on Peregrin (Homo sapiens).

Take `Cc1ccc(C(=O)Nc2cc(N3CCN(C)CC3)cc(C(F)(F)F)c2)cc1-n1cc(-c2cnn(C)c2C)nn1`: the ΔTm in experiment [1] was 3.8 °C; on Peregrin (Homo sapiens) it was -0.61 °C.

With `CN(C)C/C=C/C(=O)Nc1ccc(C(=O)Nc2cccc(Nc3ncc(Cl)c(-c4c[nH]c5ccccc45)n3)c2)cc1`, the ΔTm stood at 6.9 °C in experiment [1] and 0.03 °C at Peregrin (Homo sapiens).

`COc1cc(N(C)c2ccnc3ccc(C(F)(F)F)cc23)cc(OC)c1OC`: the values for the ΔTm (in experiment [1]; at Peregrin (Homo sapiens)) were 0.76 °C and -1.93 °C, respectively.

For the molecule `O=C(O)Cc1cc(I)c(Oc2ccc(O)c(I)c2)c(I)c1`, the ΔTm in experiment [1] was -0.28 °C; at Peregrin (Homo sapiens), -2.62 °C.

Consider `CP(C)(=O)c1ccc(CNC(=O)C2CCN(S(=O)(=O)c3cc(Cl)cc(Cl)c3)CC2)cc1`, for which the values for the ΔTm (in experiment [1]; on Peregrin (Homo sapiens)) were 0.53 °C and -3.29 °C, respectively.

In the case of `COCCCS(=O)(=O)c1cc(C)c(-c2ccc(F)c3c2CC[C@H]3Oc2ccc3c(c2)OC[C@H]3CC(=O)O)c(C)c1`, the results for the ΔTm (in experiment [1]; on Peregrin (Homo sapiens)) were 0.81 °C and -4.61 °C, respectively.

Turning to `CC(=O)N1CCN([C@H]2CCC[C@@H](NC(=O)c3cc4c(F)ccc(C)c4[nH]3)C2)CC1`, the ΔTm in experiment [1] is 0.6 °C; on Peregrin (Homo sapiens), -1.84 °C.

(Values after ChEMBL document CHEMBL5308504, “Tm Shift (DSF) assay results for EUbOPEN Chemogenomics Library” (2023).)
